These results are taken from ChEMBL document CHEMBL5370599, “Discovery of a 53BP1 Small Molecule Antagonist Using a Focused DNA-Encoded Library Screen” (J Med Chem, 2023).

In general, pIC50 refers to −log10 of the IC50, conventionally taken in molar units. Broadly, the pKd is −log10 of the Kd, conventionally taken in molar units.

pIC50, pKd: −log10 of the molar value.

The target of series [1] is T1, TP53-binding protein 1 (Homo sapiens, UniProt Q12888). The conditions noted are these: filed as antagonist.
T1 sequence (Q12888 whole entry): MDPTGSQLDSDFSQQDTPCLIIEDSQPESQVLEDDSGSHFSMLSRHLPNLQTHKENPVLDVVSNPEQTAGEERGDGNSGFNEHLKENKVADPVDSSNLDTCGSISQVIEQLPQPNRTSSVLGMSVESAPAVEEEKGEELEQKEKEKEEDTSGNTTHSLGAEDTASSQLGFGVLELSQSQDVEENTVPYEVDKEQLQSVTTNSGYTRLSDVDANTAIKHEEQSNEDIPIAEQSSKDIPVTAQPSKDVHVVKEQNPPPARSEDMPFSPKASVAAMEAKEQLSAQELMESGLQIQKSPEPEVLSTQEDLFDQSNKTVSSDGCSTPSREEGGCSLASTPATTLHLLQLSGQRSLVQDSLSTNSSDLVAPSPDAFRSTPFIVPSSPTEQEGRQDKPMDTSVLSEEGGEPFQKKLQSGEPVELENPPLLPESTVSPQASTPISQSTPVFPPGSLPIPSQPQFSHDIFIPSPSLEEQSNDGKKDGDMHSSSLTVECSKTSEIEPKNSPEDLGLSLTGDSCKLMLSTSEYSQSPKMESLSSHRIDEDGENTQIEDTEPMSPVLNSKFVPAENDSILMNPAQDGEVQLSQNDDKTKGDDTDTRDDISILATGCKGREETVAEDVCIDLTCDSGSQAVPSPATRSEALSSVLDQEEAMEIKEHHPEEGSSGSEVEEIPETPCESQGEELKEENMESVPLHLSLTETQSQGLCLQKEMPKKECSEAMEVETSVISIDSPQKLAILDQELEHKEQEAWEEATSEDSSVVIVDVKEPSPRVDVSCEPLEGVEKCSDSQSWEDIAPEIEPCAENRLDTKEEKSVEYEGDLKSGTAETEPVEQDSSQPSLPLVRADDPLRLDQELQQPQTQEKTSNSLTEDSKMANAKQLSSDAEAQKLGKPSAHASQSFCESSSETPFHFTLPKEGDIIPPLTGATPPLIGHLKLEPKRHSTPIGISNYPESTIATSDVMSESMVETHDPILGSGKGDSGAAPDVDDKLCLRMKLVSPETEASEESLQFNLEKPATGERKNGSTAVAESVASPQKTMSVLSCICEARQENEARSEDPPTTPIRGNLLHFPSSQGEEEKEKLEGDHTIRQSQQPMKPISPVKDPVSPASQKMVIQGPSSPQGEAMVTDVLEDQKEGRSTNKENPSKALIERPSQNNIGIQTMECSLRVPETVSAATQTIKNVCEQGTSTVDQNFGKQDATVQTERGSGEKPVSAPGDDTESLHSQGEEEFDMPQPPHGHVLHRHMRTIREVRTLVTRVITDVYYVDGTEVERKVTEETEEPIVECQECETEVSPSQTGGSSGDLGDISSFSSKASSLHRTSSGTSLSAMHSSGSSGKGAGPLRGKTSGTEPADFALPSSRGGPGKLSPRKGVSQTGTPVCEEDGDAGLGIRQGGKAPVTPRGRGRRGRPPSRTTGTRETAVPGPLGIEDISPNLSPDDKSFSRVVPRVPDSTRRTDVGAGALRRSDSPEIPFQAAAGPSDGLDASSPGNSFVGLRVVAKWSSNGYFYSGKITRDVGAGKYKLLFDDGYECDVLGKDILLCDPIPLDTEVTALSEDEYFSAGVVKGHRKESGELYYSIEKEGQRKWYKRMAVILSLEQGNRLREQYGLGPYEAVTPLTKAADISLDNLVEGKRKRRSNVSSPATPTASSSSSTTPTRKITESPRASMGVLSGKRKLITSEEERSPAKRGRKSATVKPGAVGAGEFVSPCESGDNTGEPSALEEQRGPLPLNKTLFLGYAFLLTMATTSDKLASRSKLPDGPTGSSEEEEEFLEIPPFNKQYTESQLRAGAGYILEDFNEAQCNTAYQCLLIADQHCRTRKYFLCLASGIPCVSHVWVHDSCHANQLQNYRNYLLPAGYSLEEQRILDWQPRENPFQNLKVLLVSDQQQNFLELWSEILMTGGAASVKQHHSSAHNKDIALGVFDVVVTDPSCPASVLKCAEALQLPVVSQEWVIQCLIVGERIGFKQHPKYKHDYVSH
Description: Binding affinity to N-terminal his6-tagged 53BP1 tandem tudor domain (1484 to 1603 residues) (unknown origin) expressed in Rosetta2 BL21 (DE3) pLysS competent cells assessed as change in enthalpy by differential scanning fluorimetry analysis
In a further series the target is PHD finger protein 19 (Homo sapiens, UniProt Q5T6S3). Kind of series: Displacement of Biotin-p53K381acK382me2 from PHF19 (unknown origin) by TR-FRET assay.
In series [2] the target is T2, Chromobox protein homolog 2 (Homo sapiens, UniProt Q14781).
T2 sequence (Q14781 whole entry): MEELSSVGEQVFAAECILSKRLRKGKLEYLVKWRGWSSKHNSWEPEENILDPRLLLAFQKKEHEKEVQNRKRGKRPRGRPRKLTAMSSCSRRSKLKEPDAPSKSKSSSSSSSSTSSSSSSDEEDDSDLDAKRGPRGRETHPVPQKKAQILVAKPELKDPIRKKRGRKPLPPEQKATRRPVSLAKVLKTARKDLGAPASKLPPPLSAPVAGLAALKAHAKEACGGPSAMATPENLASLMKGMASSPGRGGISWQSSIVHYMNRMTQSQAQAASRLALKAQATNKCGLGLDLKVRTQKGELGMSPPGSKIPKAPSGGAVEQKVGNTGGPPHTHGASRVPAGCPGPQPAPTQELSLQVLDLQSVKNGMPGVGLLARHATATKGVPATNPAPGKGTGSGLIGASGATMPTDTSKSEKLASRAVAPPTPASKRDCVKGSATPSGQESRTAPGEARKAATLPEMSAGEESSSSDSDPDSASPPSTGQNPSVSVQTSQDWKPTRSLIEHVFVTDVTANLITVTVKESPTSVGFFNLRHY
Kind of series: Displacement of Biotin-p53K381acK382me2 from CBX2 chromodomain (unknown origin) by TR-FRET assay. (In TR-FRET formats the signal depends on donor and acceptor labels being close together.)

In series [3] the target is T1, TP53-binding protein 1. The series is described as follows: Antagonist activity at nanoluc-tagged 53BP1 tandem tudor domain (unknown origin) transfected in HEK293T cells assessed as inhibition of 53BP1-H4 peptide interaction by nanoBRET assay. It counts as cell-based. On the technique in general: In BRET a luciferase serves as donor, and the signal depends on an acceptor being close.

Series [4] concerns the target T1, TP53-binding protein 1. The series is described as follows: Displacement of Biotin-p53K381acK382me2 from N-terminal his6-tagged 53BP1 (1484 to 1603 residues) (unknown origin) expressed in Rosetta2 BL21 (DE3) pLysS competent cells by TR-FRET assay. Type of series: single protein.
Series [5] deals with TERT-RPE1. The series is described as follows: Cytotoxicity against human RPE-1 cells assessed as reduction in cell viability measured upto 200 uM by celltiterglo 2.0 assay. The conditions noted are these: tert-rpe1, 200 µM. It counts as toxicity, cell-based.
A short description of series [6]: Displacement of Biotin-p53K381acK382me2 from KDM7B (unknown origin) by TR-FRET assay. More on the design: species or system Homo sapiens.
The target of series [7] is Histone-lysine N-methyltransferase SETDB1 (Homo sapiens, UniProt Q15047). Kind of series: Displacement of Biotin-p53K381acK382me2 from SETDB1 tandem tudor domain (unknown origin) by TR-FRET assay.
For series [8], the target named is T1, TP53-binding protein 1. Kind of series: Binding affinity to N-terminal his6-tagged 53BP1 tandem tudor domain (1484 to 1603 residues) (unknown origin) expressed in Rosetta2 BL21 (DE3) pLysS competent cells assessed as dissociation constant by ITC analysis. (Isothermal titration calorimetry measures the heat released or taken up as one component is titrated into another.)

For series [9], the target named is T1, TP53-binding protein 1. The series is described as follows: Binding affinity to N-terminal his6-tagged 53BP1 (1484 to 1603 residues) (unknown origin) expressed in Rosetta2 BL21 (DE3) pLysS competent cells assessed as dissociation constant by SPR analysis.
Series [10] concerns the target T3, Chromodomain Y-like protein 2 (Homo sapiens, UniProt Q8N8U2).
T3 sequence (Q8N8U2 whole entry): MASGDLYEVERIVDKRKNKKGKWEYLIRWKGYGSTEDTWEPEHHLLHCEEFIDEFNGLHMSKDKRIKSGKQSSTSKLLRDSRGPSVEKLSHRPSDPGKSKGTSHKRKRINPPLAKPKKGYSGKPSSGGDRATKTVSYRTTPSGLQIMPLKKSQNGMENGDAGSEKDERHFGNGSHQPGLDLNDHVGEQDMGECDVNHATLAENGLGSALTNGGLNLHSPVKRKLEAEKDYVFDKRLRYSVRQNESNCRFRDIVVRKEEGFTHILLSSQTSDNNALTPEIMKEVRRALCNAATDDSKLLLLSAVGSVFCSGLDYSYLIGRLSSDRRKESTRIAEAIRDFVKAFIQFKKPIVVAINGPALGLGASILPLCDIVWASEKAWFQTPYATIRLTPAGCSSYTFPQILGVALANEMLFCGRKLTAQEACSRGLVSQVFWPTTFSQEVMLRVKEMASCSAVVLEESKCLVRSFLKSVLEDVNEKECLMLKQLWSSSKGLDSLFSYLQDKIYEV
Kind of series: Displacement of Biotin-p53K381acK382me2 from CDYL2 (unknown origin) by TR-FRET assay.

Series [11] in a line: Kinetic solubility of compound by CLND analysis. Type of series: physicochemical.
For series [12], the target named is T4, E3 ubiquitin-protein ligase UHRF1 (Homo sapiens, UniProt Q96T88).
T4 sequence (Q96T88 whole entry): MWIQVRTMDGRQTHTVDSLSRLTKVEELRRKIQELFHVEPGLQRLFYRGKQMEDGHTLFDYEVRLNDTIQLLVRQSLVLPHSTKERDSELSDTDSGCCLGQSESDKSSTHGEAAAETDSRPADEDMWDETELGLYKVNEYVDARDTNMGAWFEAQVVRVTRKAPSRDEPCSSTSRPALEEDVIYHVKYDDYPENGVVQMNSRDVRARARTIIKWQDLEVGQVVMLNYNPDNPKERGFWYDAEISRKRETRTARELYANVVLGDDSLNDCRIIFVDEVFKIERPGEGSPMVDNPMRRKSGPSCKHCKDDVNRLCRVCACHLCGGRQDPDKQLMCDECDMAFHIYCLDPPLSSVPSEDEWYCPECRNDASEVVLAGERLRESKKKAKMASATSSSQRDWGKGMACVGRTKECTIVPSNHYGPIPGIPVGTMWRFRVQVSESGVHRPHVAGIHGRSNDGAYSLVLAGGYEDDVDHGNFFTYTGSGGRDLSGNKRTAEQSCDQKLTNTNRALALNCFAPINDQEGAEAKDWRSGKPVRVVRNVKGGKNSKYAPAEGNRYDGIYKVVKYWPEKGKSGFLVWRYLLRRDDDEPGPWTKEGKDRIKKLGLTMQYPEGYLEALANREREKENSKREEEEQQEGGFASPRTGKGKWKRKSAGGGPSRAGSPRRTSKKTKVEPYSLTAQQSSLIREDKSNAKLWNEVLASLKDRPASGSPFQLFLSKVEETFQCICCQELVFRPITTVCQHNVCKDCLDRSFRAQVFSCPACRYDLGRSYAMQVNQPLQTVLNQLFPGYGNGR
Kind of series: Displacement of Biotin-p53K381acK382me2 from UHRF1 tandem tudor domain (unknown origin) by TR-FRET assay.

For series [13], the system named is HEK-293T. Kind of series: Cytotoxicity against HEK293T cells assessed as reduction in cell viability measured upto 200 uM by celltiterglo 2.0 assay. It counts as toxicity, cell-based. Particulars: human.
A further series has as its target T5, M-phase phosphoprotein 8 (Homo sapiens, UniProt Q99549).
T5 sequence (Q99549 whole entry): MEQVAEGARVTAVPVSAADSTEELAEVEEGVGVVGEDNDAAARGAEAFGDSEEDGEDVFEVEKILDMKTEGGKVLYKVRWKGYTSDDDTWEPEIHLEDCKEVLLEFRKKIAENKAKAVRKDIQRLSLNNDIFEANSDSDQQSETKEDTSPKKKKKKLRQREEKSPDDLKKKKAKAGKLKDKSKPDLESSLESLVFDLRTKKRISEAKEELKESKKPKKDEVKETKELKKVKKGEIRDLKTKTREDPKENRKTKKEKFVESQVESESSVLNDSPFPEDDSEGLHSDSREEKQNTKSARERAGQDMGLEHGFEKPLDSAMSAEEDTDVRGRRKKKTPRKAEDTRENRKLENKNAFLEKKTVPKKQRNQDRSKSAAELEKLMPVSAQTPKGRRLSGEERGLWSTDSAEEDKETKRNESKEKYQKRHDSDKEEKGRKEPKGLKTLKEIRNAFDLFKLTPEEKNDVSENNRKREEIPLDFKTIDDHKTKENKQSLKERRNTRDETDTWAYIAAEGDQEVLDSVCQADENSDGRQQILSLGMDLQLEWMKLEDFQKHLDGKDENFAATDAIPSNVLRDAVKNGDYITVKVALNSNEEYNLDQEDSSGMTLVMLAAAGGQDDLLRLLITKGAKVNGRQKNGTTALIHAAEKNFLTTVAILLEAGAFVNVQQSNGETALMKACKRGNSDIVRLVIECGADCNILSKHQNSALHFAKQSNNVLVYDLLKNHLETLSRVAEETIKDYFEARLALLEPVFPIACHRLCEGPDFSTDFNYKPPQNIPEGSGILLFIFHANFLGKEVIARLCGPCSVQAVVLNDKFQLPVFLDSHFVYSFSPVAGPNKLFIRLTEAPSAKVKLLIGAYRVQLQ
Kind of series: Displacement of Biotin-p53K381acK382me2 from MPP8 chromodomain (unknown origin) by TR-FRET assay.

The test system of series [14] is TERT-RPE1. Kind of series: Cytotoxicity against human RPE-1 cells assessed as reduction in cell viability by celltiterglo 2.0 assay. It counts as toxicity, cell-based.
Series [15] relates to HEK-293T. Kind of series: Cytotoxicity against HEK293T cells assessed as reduction in cell viability by celltiterglo 2.0 assay. It counts as toxicity, cell-based. Particulars: human.

For the compound `CN1CCN(c2ccnc(C(=O)N3CCC[C@H](C(=O)Nc4cccc(-c5ccc6c(c5)C(=O)NC6)c4)C3)c2)CC1`, at TP53-binding protein 1 [1], the deltaH was -5.8 kcal/mol. Further, the pIC50 at PHD finger protein 19 was less than 4.00; in [2], less than 4.00; at TP53-binding protein 1 [3], 5.16; on TP53-binding protein 1 [4] it was 6.34; in series [6], less than 4.00; in series [7], less than 4.00. Further, the pIC50 (in [10]; in [12]; on M-phase phosphoprotein 8) was less than 4.00 each time. The Activity result with TERT-RPE1 [5] and in the series on HEK-293T [13] was “Non-Toxic” throughout. Besides, the values for the pKd at TP53-binding protein 1 [8] and at TP53-binding protein 1 [9] were 6.39 and 6.77, respectively. In [11], the Kinetic_solubility came to 200 µM.
Compound `CN1CCN(c2ccnc(C(=O)N3CCC[C@H](C(=O)Nc4cccc(-c5ccc(C(N)=O)cc5)c4)C3)c2)CC1` had a deltaH at TP53-binding protein 1 [1] of -9.2 kcal/mol. Also, the pIC50 was less than 4.00 at PHD finger protein 19; less than 4.00 in series [2]; 5.07 on TP53-binding protein 1 [3]; 6.33 on TP53-binding protein 1 [4]; less than 4.00 in series [6]; less than 4.00 in series [7]. Besides, the pIC50 (in series [10]; in series [12]; at M-phase phosphoprotein 8) was less than 4.00 each time. Besides, the Activity result with TERT-RPE1 [5] and with HEK-293T [13] was “Non-Toxic” each time. Further, the values for the pKd on TP53-binding protein 1 [8] and at TP53-binding protein 1 [9] were 6.07 and 6.10, respectively. In series [11], this compound came in with a Kinetic_solubility of 194 µM.
For the compound `O=C1NCc2ccc(-c3cccc(NC(=O)[C@H]4CCCN(C(=O)c5cc(N6CCCCC6)ccn5)C4)c3)cc21`, the Activity result in the series with TERT-RPE1 [14] and in the series on HEK-293T [15] was “Toxic” each time.
